Reference: publication PMC9673926, “Nucleotide binding as an allosteric regulatory mechanism for Akkermansia muciniphila β-N-acetylhexosaminidase Am2136” (Gut Microbes, 2022)
Positions count from the first letter of the chain named.

Legend:
Experiment in all cases: Nucleotide binding affinity by intrinsic fluorescence, mutant
Set-up in all cases: The coding region (residue Q20-L756) of Am2136 without signal peptide was based on UniProt; 6XHis (N); made in house; host or cells: E. coli BL21 (DE3)
Am2136 P595A+H597A = biological target: T1, Am2136 P595A+H597A (Akkermansia muciniphila, UniProt B2UPR7, H597A/P595A)
T1 sequence (B2UPR7 20-756 P595A/H597A): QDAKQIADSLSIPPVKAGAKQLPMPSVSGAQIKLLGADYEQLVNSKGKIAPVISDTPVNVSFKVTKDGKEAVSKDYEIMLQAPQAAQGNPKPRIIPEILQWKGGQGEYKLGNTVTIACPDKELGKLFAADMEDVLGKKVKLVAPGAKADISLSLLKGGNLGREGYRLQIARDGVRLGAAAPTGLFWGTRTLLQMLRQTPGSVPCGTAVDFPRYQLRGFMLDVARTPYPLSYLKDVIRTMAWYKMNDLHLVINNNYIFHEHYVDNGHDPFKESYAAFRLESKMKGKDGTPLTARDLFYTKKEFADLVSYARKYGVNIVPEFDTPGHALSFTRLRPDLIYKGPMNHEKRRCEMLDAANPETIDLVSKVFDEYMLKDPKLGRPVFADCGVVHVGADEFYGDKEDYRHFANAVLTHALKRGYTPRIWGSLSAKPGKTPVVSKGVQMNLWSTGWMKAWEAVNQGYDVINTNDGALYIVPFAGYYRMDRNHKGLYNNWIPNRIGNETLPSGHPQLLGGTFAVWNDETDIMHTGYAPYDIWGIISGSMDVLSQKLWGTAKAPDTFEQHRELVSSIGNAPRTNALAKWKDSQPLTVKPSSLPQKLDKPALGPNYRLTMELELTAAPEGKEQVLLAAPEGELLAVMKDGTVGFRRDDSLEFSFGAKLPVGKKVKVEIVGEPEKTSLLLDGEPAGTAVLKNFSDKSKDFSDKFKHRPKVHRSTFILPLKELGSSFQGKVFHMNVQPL
Procedure: (§1) The nucleotide binding ability was determined on Fluorescence Spectrometer Duetta (HORIBA) by measuring the change of peak intensity. The fluorescence was excited at 286 nm and emitted at 336 nm. And the measurement was processed under 400 V voltage with 2.5 nm excitation slit and 5 nm emission slit. The 120 μL reaction mixture contains 0–550 μM nucleotide, 5 μM proteins, 25 mM Tris pH 8.0 and 150 mM NaCl. The sample was incubated at 4°C for 5 min before testing.

Am2136 Y550A = biological target: T2, Am2136 Y550A (Akkermansia muciniphila, UniProt B2UPR7, Y550A)
T2 sequence (B2UPR7 20-756 Y550A): T1 sequence (B2UPR7 20-756 P595A/H597A) with Y531A, A576P, A578H
Procedure: as §1

Am2136 E649A = biological target: T3, Am2136 E649A (Akkermansia muciniphila, UniProt B2UPR7, E649A)
T3 sequence (B2UPR7 20-756 E649A): T1 sequence (B2UPR7 20-756 P595A/H597A) with A576P, A578H, E630A
Procedure: as §1

With `Nc1nc2c(ncn2[C@@H]2O[C@H](COP(=O)(O)OP(=O)(O)O)[C@@H](O)[C@H]2O)c(=O)[nH]1` [GDP] the Kd (Am2136 P595A+H597A) was 140 ± 4.26 µM, the Kd (Am2136 Y550A) was 193 ± 7.36 µM and the Kd (Am2136 E649A) was 236 µM.
